Laboratory results as given in ChEMBL document CHEMBL1130746, “Naphthalenebis[alpha,alpha-difluoromethylenephosphonates] as potent inhibitors of protein tyrosine phosphatases” (Bioorg Med Chem Lett, 1998).

Assays:
[1] = biological target: T1, Tyrosine-protein phosphatase non-receptor type 1 (Homo sapiens, UniProt P18031); experiment: Compound was evaluated for inhibitory constant against PTP1B
T1 sequence (P18031 whole entry): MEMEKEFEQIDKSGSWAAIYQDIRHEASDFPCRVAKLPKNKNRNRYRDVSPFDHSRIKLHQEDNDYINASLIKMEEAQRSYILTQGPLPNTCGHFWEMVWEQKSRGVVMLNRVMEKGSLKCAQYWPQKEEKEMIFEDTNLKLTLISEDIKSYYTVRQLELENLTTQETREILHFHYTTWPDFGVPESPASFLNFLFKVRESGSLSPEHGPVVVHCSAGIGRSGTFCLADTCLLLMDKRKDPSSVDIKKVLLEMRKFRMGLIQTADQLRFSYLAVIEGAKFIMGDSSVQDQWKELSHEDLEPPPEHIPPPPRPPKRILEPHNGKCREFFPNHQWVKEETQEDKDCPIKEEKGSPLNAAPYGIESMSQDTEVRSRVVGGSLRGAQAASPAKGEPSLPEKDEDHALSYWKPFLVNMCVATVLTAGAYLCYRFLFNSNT

[2] = Compound was evaluated for 50% inhibition of PP2A, a serine/threonine phosphatase using uM)
[3] = biological target: T2, Receptor-type tyrosine-protein phosphatase C (Homo sapiens, UniProt P08575); experiment: Compound was evaluated for 50% inhibition of CD45 using uM)
T2 sequence (P08575 whole entry): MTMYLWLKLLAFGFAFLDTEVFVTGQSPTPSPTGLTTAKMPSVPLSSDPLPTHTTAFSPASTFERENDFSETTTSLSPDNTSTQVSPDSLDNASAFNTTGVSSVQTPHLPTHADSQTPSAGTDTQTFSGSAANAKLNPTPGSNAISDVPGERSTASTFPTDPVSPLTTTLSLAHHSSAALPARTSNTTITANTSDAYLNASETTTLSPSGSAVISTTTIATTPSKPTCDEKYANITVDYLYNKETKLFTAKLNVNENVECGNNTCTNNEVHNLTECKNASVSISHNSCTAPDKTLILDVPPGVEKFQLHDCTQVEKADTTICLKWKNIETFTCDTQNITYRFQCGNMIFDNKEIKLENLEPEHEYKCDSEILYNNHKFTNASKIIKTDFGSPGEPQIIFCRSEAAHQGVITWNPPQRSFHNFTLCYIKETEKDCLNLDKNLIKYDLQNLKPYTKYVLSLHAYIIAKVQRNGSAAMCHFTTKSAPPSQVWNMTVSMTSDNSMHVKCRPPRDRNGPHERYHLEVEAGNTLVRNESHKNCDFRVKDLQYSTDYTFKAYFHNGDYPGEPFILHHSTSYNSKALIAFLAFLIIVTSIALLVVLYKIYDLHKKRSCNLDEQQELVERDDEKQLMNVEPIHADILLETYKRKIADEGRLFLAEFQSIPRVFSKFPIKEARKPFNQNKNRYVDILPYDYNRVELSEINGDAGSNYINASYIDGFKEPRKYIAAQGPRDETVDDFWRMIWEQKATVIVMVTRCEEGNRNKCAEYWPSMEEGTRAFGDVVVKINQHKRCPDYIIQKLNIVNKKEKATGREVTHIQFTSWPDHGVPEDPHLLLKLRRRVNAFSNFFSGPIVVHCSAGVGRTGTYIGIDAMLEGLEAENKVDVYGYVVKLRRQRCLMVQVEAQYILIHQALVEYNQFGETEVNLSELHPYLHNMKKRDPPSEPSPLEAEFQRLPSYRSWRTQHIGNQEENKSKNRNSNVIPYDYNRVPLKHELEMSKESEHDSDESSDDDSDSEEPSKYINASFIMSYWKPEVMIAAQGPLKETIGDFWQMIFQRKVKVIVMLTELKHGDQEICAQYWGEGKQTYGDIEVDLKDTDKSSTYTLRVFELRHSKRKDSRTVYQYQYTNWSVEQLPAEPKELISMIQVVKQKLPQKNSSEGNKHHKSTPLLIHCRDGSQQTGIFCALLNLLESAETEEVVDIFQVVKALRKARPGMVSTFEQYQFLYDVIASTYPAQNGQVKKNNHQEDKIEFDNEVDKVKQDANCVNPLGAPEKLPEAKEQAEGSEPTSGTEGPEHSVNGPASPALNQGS

[4] = Compound was evaluated for inhibition of PP2A at a concentration of 500 uM)
[5] = biological target: T3, Receptor-type tyrosine-protein phosphatase C (Homo sapiens) (UniProt P08575); experiment: Compound was evaluated for inhibition of CD45 at a concentration of 500 uM)
T3 sequence (whole entry): T2 sequence (P08575 whole entry)

[6] = biological target: T4, Tyrosine-protein phosphatase non-receptor type 1 (Homo sapiens) (UniProt P18031); experiment: Compound was evaluated for inhibition of PTP1B at a concentration of 500 uM)
T4 sequence (whole entry): T1 sequence (P18031 whole entry)

[7] = biological target: T1, Tyrosine-protein phosphatase non-receptor type 1; experiment: Compound was evaluated for 50% inhibition of PTP1B using uM)
[8] = biological target: T2, Receptor-type tyrosine-protein phosphatase C; experiment: Compound was evaluated for 50% inhibition of CD45 protein-tyrosine phosphatase using uM)
[9] = biological target: T3, Receptor-type tyrosine-protein phosphatase C (Homo sapiens); experiment: Compound was evaluated for inhibition of CD45 protein-tyrosine phosphatase at a concentration of 500 uM)
[10] = biological target: T2, Receptor-type tyrosine-protein phosphatase C; experiment: Compound was evaluated for inhibitory constant against CD45

Row | SMILES | Ki [1] [µM] | IC50 [2] [µM] | IC50 [3] [µM] | inhibition [4] [%] | inhibition [5] [%] | inhibition [6] [%] | IC50 [7] [µM] | IC50 [8] [µM] | inhibition [9] [%] | Ki [10] [µM]
1 | O=P(O)(O)C(F)(F)c1cc(O)c2ccccc2c1 | 93 | – | – | – | – | – | – | – | – | –
2 | O=P(O)(O)Cc1ccc2ccc(CP(=O)(O)O)cc2c1 | – | – | – | – | – | – | > 500 | 500 | – | –
3 | O=P(O)(O)C(F)(F)c1ccc2cc(C(F)(F)P(=O)(O)O)ccc2c1 | – | 354 | – | 70 | – | 100 | 29 | > 100 | 62 | –
4 | O=P(O)(O)C(F)c1ccc2ccc(C(F)P(=O)(O)O)cc2c1 (configuration not stated) | – | – | – | – | – | – | 130 | 279 | – | –
5 | O=P(O)(O)C(F)(F)c1ccc2ccccc2c1 | 197 | 753 | > 1000 | 39 | 5 | 84 | 95 | – | – | –
6 | O=P(O)(O)C(F)(F)c1cccc2c(C(F)(F)P(=O)(O)O)cccc12 | – | – | – | 77 | – | 51 | – | – | 26 | –

Next, values leading:

Row | Ki [1] [µM] | IC50 [2] [µM] | IC50 [3] [µM] | inhibition [4] [%] | inhibition [5] [%] | inhibition [6] [%] | IC50 [7] [µM] | IC50 [8] [µM] | inhibition [9] [%] | Ki [10] [µM] | SMILES
7 | 16 | 306 | 180 | 70 | 64 | 100 | – | – | – | – | O=P(O)(O)C(F)(F)c1ccc2ccc(C(F)(F)P(=O)(O)O)cc2c1
8 | – | – | – | 75 | – | 89 | – | – | 70 | – | O=P(O)(O)C(F)(F)c1ccc2c(C(F)(F)P(=O)(O)O)cccc2c1
9 | 255 | 636 | > 1000 | 52 | 20 | 83 | 112 | – | – | – | O=P(O)(O)C(F)(F)c1cccc2ccccc12
10 | – | – | – | 66 | – | 81 | – | – | 78 | – | O=P(O)(O)C(F)(F)c1cc(C(F)(F)P(=O)(O)O)c2ccccc2c1
11 | – | 481 | 27 | 61 | – | 98 | 118 | – | 99 | 9 | O=P(O)(O)C(F)(F)c1ccc2cccc(C(F)(F)P(=O)(O)O)c2c1
